# Source: patent publication US9879308B2, “Apparatus for ex vivo microfluidic analysis of biologic samples” (The Charles Stark Draper Laboratory, Inc., priority 2012, dated 2018)
# Like-named read-outs stand apart in the source and are kept apart here.
# Key:
# [1] = test system: tumor fragments obtained by FNAB from a patient-derived osteosarcoma xenograft model; type: in vitro ADME, human
# Method: (§1) FIG. 8 provides an expanded view of an extracted ion chromatogram (XIC) from a potential metabolite highlighted against the background sample. Perfused fluid was collected from the fluidic apparatus as described in the above experiment performed with the FNAB samples (FIGS. 2A-C) to determine whether tumor-mediated drug processing and metabolism can be analyzed. Fluidic samples were prepared by filtration and analyzed by mass spectrometry.
# [2] = test system: FNAB osteosarcoma samples; assay: Active caspase ELISA of perfused fluid from fluidic apparatus; type: cell-based, human; details: data not shown
# Method: The fluidic apparatuses were connected to their respective syringe pumps. The FNAB samples were first primed with several passes of culture media. After priming, each FNAB sample was subject to constant laminar flow at 100 μl/hr for 72 hours with their respective treatment. Media was collected every 24 hours and analyzed for caspase 3 and 7 and lactate dehydrogenase (LDH).
# as §1
# [3] = test system: FNAB osteosarcoma samples; assay: Ex vivo treatment of FNAB osteosarcoma samples in microfluidic apparatus, LIVE/DEAD fluorescence staining; type: cell-based, human
# Excerpt: Eight micro-scale fluidic apparatuses of the present technology were fabricated from soft photolithography and bonded onto glass coverslip slides. The apparatuses were sterilized by ethylene oxide (EtO) gas. Each fluidic apparatus included a single channel, and the center of the channel contained a series of seven free standing post, collectively called the retaining element, which were used to retain the FNBA osteosarcoma sample (see FIG. 3A). Fluid flows into the channel by an inlet port and out of the channel by an outlet port.
# FNAB osteosarcoma samples were taken from xenograft mouse with patient-derived osteosarcoma using a 25-gauge needle. FNABs were processed and selected for viability by H&E staining procedures before use and individually loaded one into each retaining element and imaged by microscopy and measured for size (all FNABs assayed were ˜300 μm in diameter). […]
# The fluidic apparatuses were connected to their respective syringe pumps. […] Media was collected every 24 hours and analyzed for caspase 3 and 7 and lactate dehydrogenase (LDH). […]
# The FNAB samples were fully penetrated by drugs. Tumor cells were stained with HCS LIVE/DEAD® Green Kit (Life Technologies, Carlsband, Calif.) and images were obtained using inverted fluorescence microscope to assess dead (green) and alive (blue) cells.
# CDC2Y15 = assay: Western blot of CDC2Y15 expression in FNAB cell extracts from treated xenograft mice; design: species or system mouse; details: in vivo treatment; compared to vehicle and gemcitabine treatments; FIG. 7A column (a)
# Method: (§2) Xenograft mice bearing human osteosarcoma tumor were treated with vehicle, gemcitabine, MK-1775, or a combination of gemcitabine and MK-1775 for 15 days. Treatments were administered on day 1, 3, 8, and 10. FNAB samples were taken before (day 0) and at 6 and 24 hours after treatment. Cell extracts were prepared from the FNAB samples to assess expression levels of CDC2Y15, a target for MK-1775, by Western blot. After day 15, tumors were analyzed by T2-weighted MRIs and paraffin sections of tumors were prepared to assess microscopic features of cell death by H&E-staining and to assess levels of cleaved-caspase 3.
# [4] = test system: patient-derived osteosarcoma xenograft; assay: Treatment of patient-derived osteosarcoma xenograft mice in vivo (MRI tumor volume, H&E, cleaved-caspase 3); design: species or system mouse
# Method: as §2
# The symbol (*) indicates statistical significance (p<0.05).
# [5] = compared to vehicle and gemcitabine treatments, FIG. 7A column (c)
Structure (SMILES),drug metabolism by tumor fragments (mass spectrometry) ([1]; human),cell death by active caspase ELISA [2],"cell death in tumor fragments ex vivo ([3]; 1 μM MK-1775, 3 μM gemcitabine, 100 μl/hr for 72 hours, LIVE/DEAD stain, FIG. 7C)","apoptosis of the cancer cells, ex vivo model ([3]; 72 hour period)",expression levels of CDC2Y15 (CDC2Y15),"apoptosis of the cancer cells, in vivo model ([4]; 15 days of treatment)","DNA staining of tumor sections [4, 5]","immunoreactivity to caspase 3 [4, 5]","tumor volume at day 15 ([4]; day 15, compared to vehicle and gemcitabine treatments, FIG. 7A column (b))","cell death in vivo ([4]; patient-derived osteosarcoma xenograft mouse model, FIG. 7A)",drug metabolism by tumor fragments (mass spectrometry) [1]
C=CCn1c(=O)c2cnc(Nc3ccc(N4CCN(C)CC4)cc3)nc2n1-c1cccc(C(C)(C)O)n1 [MK-1775],metabolism of MK-1775 into its metabolized forms,increased cell death,lead to cell death,able to induce apoptosis,reduces expression levels of CDC2Y15,able to induce apoptosis,decreased DNA staining,high immunoreactivity to caspase 3,reduced tumor volume,lead to cell death,–
Nc1ccn([C@@H]2O[C@H](CO)[C@@H](O)C2(F)F)c(=O)n1 [gemcitabine],–,not,–,–,–,–,–,–,–,–,"active metabolism of gemcitabine into its active form, triphosphate"
